Data from patent US10335409B2 (priority 2012, dated 2019).
Like-named read-outs stand apart in the source and are kept apart here.

Legend:
Type in all cases: cell-based, hepatitis C virus
[1] = tested on: genotype 1a (H77) stable HCV replicon in Huh-7-derived cells; assay: Stable subgenomic HCV replicon EC50, genotype 1a (Renilla luciferase); settings: Hepatitis C virus, stable replicon genotype 1a, 72 h, read-out: EC50 1A RLUC
Outline: (§1)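 Compounds, three-fold diluted, were applied to Huh-7-derived cells harbouring luciferase replicons (genotype 1a H77, 1b Con1, 2a JFH-1, 4a ED43, with strain-specific adaptive mutations). Seventy-two hours later, intracellular replication was gauged by Renilla luciferase activity and EC50 derived by regression.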

[2] = tested on: genotype 1b (Con1) stable HCV replicon in Huh-7-derived cells; assay: Stable subgenomic HCV replicon EC50, genotype 1b (Renilla luciferase); settings: Hepatitis C virus, stable replicon genotype 1b, 72 h, read-out: EC50 1B RLUC
Outline: as §1

[3] = tested on: genotype 2a (JFH-1) stable HCV replicon in Huh-7-derived cells; assay: Stable subgenomic HCV replicon EC50, genotype 2a (Renilla luciferase); settings: Hepatitis C virus, stable replicon genotype 2a, 72 h, read-out: EC50 2A RLUC
Outline: as §1

[4] = tested on: genotype 3a (S52) stable HCV replicon in Huh-7-derived cells; assay: Stable subgenomic HCV replicon EC50, genotype 3a (Renilla luciferase); settings: Hepatitis C virus, 72 h, read-out: EC50 3A RLUC
[5] = tested on: genotype 4a (ED43) stable HCV replicon in Huh-7-derived cells; assay: Stable subgenomic HCV replicon EC50, genotype 4a (Renilla luciferase); settings: Hepatitis C virus, 72 h, read-out: EC50 4A RLUC
Outline: as §1

[6] = tested on: genotype 3a (S52) wild type transient HCV replicon in Huh-7-derived cells; assay: Transient-transfected HCV replicon EC50, genotype 3a wild type; settings: Hepatitis C virus, 72 h, read-out: EC50 3A WT
[7] = tested on: genotype 1a (H77) wild type transient HCV replicon in Huh-7-derived cells; assay: Transient-transfected HCV replicon EC50, genotype 1a wild type; settings: Hepatitis C virus, 72 h, read-out: EC50 1A WT
[8] = tested on: genotype 1a NS3/4a protease inhibitor resistant variant R155K transient HCV replicon in Huh-7-derived cells; assay: Transient-transfected HCV replicon EC50, genotype 1a R155K; settings: Hepatitis C virus, 72 h, read-out: EC50 1A R155K, transient-transfected replicon genotype 1a R155K resistant variant, 72 h
[9] = tested on: genotype 1b (Con1) wild type transient HCV replicon in Huh-7-derived cells; assay: Transient-transfected HCV replicon EC50, genotype 1b wild type; settings: Hepatitis C virus, 72 h, read-out: EC50 1B WT
[10] = tested on: genotype 1b NS3/4a protease inhibitor resistant variant D168A transient HCV replicon in Huh-7-derived cells; assay: Transient-transfected HCV replicon EC50, genotype 1b D168A; settings: Hepatitis C virus, 72 h, read-out: EC50 1B D168A, transient-transfected replicon genotype 1b D168A resistant variant, 72 h
[11] = transient-transfected replicon genotype 3a wild type
[12] = transient-transfected replicon genotype 1a wild type
[13] = transient-transfected replicon genotype 1b wild type

COc1ccc2nc3c(nc2c1)O[C@H]1CN(C(=O)[C@H](C(C)(C)C)NC(=O)O[C@@H]2C[C@@H]4C[C@@H]4[C@H]2CCCCC3)[C@H](C(=O)N[C@]2(C(=O)NS(=O)(=O)C3(C)CC3)C[C@H]2C(F)F)[C@@H]1C [Example 49, (1aS,2aR,6S,9S,10S,11R,23aR,23bS)-6-tert-butyl-N-[(1R,2R)-2-(difluoromethyl)-1-{[(1-methylcyclopropyl)sulfonyl]carbamoyl}cyclopropyl]-15-methoxy-10-methyl-4,7-dioxo-1a,2,2a,4,5,6,7,10,11,19,20,21,22,23,23a,23b-hexadecahydro-1H,9H-8,11-methanocyclopropa[4′,5′]cyclopenta[1′,2′:18,19][1,10,3,6]dioxadiazacyclononadecino[11,12-b]quinoxaline-9-carboxamide]
EC50 [1]: 3.7 nM
EC50 [2]: 4.1 nM
EC50 [3]: 5.2 nM
EC50 [4]: 20 nM
EC50 [5]: 3.5 nM
EC50 [6]: 6.3 nM
EC50 [7]: 3.5 nM
EC50 [8]: 3.8 nM
EC50 [9]: 2.8 nM
EC50 [10]: 4.2 nM

COc1ccc2nc3c(nc2c1)O[C@H]1CN(C(=O)[C@H](C(C)(C)C)NC(=O)O[C@@H]2C[C@H]2CCCCC3)[C@H](C(=O)N[C@]2(C(=O)NS(=O)(=O)C3(C)CC3)C[C@H]2C(F)F)[C@@H]1CC#N [Example 50, (1aR,5S,8S,9S,10R,22aR)-5-tert-butyl-9-(cyanomethyl)-N-[(1R,2R)-2-(difluoromethyl)-1-{[(1-methylcyclopropyl)sulfonyl]carbamoyl}cyclopropyl]-14-methoxy-3,6-dioxo-1,1a,3,4,5,6,9,10,18,19,20,21,22,22a-tetradecahydro-8H-7,10-methanocyclopropa[18,19][1,10,3,6]dioxadiazacyclononadecino[11,12-b]quinoxaline-8-carboxamide]
EC50 [1]: 4440 nM
EC50 [2]: 4440 nM
EC50 [3]: 379 nM
EC50 [4]: 19700 nM
EC50 [5]: 4440 nM
EC50 [6, 11]: 26800 nM
EC50 [7, 12]: 4440 nM
EC50 [8]: 3830 nM
EC50 [9, 13]: 4440 nM
EC50 [10]: 4440 nM

CC[C@@H]1[C@@H]2CN(C(=O)[C@H](C(C)(C)C)NC(=O)O[C@]3(C)CCC[C@H]3CCCCCc3nc4ccc(OC)cc4nc3O2)[C@@H]1C(=O)N[C@]1(C(=O)NS(=O)(=O)C2CC2)C[C@H]1CC [Example 51]
EC50 [1]: 40 nM
EC50 [2]: 39 nM
EC50 [3]: 103 nM
EC50 [4]: 1220 nM
EC50 [5]: 30 nM
EC50 [6, 11]: 265 nM
EC50 ([7]; GETYPE1A, transient-transfected replicon genotype 1a wild type): 28 nM
EC50 ([8]; GETYPE1A): 92 nM
EC50 ([9]; GETYPE1B, transient-transfected replicon genotype 1b wild type): 24 nM
EC50 ([10]; GETYPE1B): 318 nM

CC[C@@H]1[C@@H]2CN(C(=O)[C@H](C(C)(C)C)NC(=O)O[C@]3(C)CCC[C@H]3CCCCCc3nc4ccc(OC)cc4nc3O2)[C@@H]1C(=O)N[C@]1(C(=O)NS(=O)(=O)C2(C)CC2)C[C@H]1CCF [Example 52, (3aR,7S,10S,11S,12R,24aR)-7-tert-butyl-11-ethyl-N-[(1R,2S)-2-(2-fluoroethyl)-1-{[(1-methylcyclopropyl)sulfonyl]carbamoyl}cyclopropyl]-16-methoxy-3a-methyl-5,8-dioxo-1,2,3,3a,5,6,7,8,11,12,20,21,22,23,24,24a-hexadecahydro-10H-9,12-methanocyclopenta[18,19][1,10,3,6]dioxadiazacyclononadecino[11,12-b]quinoxaline-10-carboxamide]
EC50 [1]: 195 nM
EC50 [2]: 245 nM
EC50 [3]: 380 nM
EC50 [4]: 2310 nM
EC50 [5]: 161 nM
EC50 [6, 11]: 538 nM
EC50 [7, 12]: 150 nM
EC50 [8]: 516 nM
EC50 [9, 13]: 161 nM
EC50 [10]: 887 nM

CC[C@@H]1[C@@H]2CN(C(=O)[C@H](C(C)(C)C)NC(=O)O[C@@H]3C[C@H]3CCCCC(F)(F)c3nc4ccccc4nc3O2)[C@@H]1C(=O)N[C@]1(C(=O)NS(=O)(=O)C2CC2)C[C@H]1C(F)F [Example 53, (1aR,5S,8S,9S,10R,22aR)-5-tert-butyl-N-[(1R,2R)-1-[(cyclopropylsulfonyl)carbamoyl]-2-(difluoromethyl)cyclopropyl]-9-ethyl-18,18-difluoro-3,6-dioxo-1,1a,3,4,5,6,9,10,18,19,20,21,22,22a-tetradecahydro-8H-7,10-methanocyclopropa[18,19][1,10,3,6]dioxadiazacyclononadecino[11,12-b]quinoxaline-8-carboxamide]
EC50 [1]: 51 nM
EC50 [2]: 7.7 nM
EC50 [3]: 13 nM
EC50 [4]: 18 nM
EC50 [5]: 2.8 nM
EC50 [6, 11]: 15 nM
EC50 [7, 12]: 5.3 nM
EC50 [8]: 5.6 nM
EC50 [9, 13]: 2 nM
EC50 [10]: 11 nM

CC[C@@H]1[C@@H]2CN(C(=O)[C@H](C(C)(C)C)NC(=O)O[C@@H]3C[C@H]3CCCCC(F)(F)c3nc4ccccc4nc3O2)[C@@H]1C(=O)N[C@]1(C(=O)NS(=O)(=O)C2CC2)C[C@H]1CC [Example 54, (1aR,5S,8S,9S,10R,22aR)-5-tert-butyl-N-{(1R,2R)-1-[(cyclopropylsulfonyl)carbamoyl]-2-ethylcyclopropyl}-9-ethyl-18,18-difluoro-3,6-dioxo-1,1a,3,4,5,6,9,10,18,19,20,21,22,22a-tetradecahydro-8H-7,10-methanocyclopropa[18,19][1,10,3,6]dioxadiazacyclononadecino[11,12-b]quinoxaline-8-carboxamide]
EC50 [1]: 33 nM
EC50 [2]: 18 nM
EC50 [3]: 76 nM
EC50 [4]: 260 nM
EC50 [5]: 13 nM
EC50 [6, 11]: 147 nM
EC50 [7, 12]: 19 nM
EC50 [8]: 27 nM
EC50 [9, 13]: 10 nM
EC50 [10]: 123 nM

CC[C@@H]1[C@@H]2CN(C(=O)[C@H](C(C)(C)C)NC(=O)O[C@]3(C)CCC[C@H]3CCCCCc3nc4ccc(OC)cc4nc3O2)[C@@H]1C(=O)N[C@]1(C(=O)NS(=O)(=O)C2(C)CC2)C[C@H]1CC [Example 56, (3aR,7S,10S,11S,12R,24aR)-7-tert-butyl-11-ethyl-N-[(1R,2R)-2-ethyl-1-{[(1-methylcyclopropyl)sulfonyl]carbamoyl}cyclopropyl]-16-methoxy-3a-methyl-5,8-dioxo-1,2,3,3a,5,6,7,8,11,12,20,21,22,23,24,24a-hexadecahydro-10H-9,12-methanocyclopenta[18,19][1,10,3,6]dioxadiazacyclononadecino[11,12-b]quinoxaline-10-carboxamide]
EC50 [1]: 41 nM
EC50 [2]: 37 nM
EC50 [3]: 57 nM
EC50 [4]: 1030 nM
EC50 [5]: 57 nM
EC50 [6, 11]: 226 nM
EC50 [7, 12]: 63 nM
EC50 [8]: 168 nM
EC50 [9, 13]: 59 nM
EC50 [10]: 252 nM

COc1ccc2nc3c(nc2c1)O[C@H]1CN(C(=O)[C@H](C(C)(C)C)NC(=O)O[C@@H]2C[C@@H]4C[C@@H]4[C@H]2CCCCC3)[C@H](C(=O)N[C@]2(C(=O)NS(=O)(=O)C3CC3)C[C@H]2CC(F)F)[C@@H]1C [Example 57, (1aS,2aR,6S,9S,10S,11R,23aR,23bS)-6-tert-butyl-N-[(1R,2S)-1-[(cyclopropylsulfonyl)carbamoyl]-2-(2,2-difluoroethyl)cyclopropyl]-15-methoxy-10-methyl-4,7-dioxo-1a,2,2a,4,5,6,7,10,11,19,20,21,22,23,23a,23b-hexadecahydro-1H,9H-8,11-methanocyclopropa[4′,5′]cyclopenta[1′,2′:18,19][1,10,3,6]dioxadiazacyclononadecino[11,12-b]quinoxaline-9-carboxamide]
EC50 [1]: 12 nM
EC50 [2]: 11 nM
EC50 [3]: 21 nM
EC50 [4]: 166 nM
EC50 [5]: 4.9 nM
EC50 [6]: 54 nM
EC50 [7]: 12 nM
EC50 [8]: 17 nM
EC50 [9]: 7.5 nM
EC50 [10]: 48 nM
